{
  "source": "patent US20250297300A1",
  "about": "“DETECTION, STAGING, MONITORING AND TREATING A DISEASE OR A CONDITION” (SUNBIRD BIO, INC., priority 2021, published 2025)",
  "key": {"[1]": {"test_system": "proteases in plasma sensed by Probe #102 (cathepsin L)", "experiment": "Inhibitor profiling of Probe #102 cleavage in NASH and healthy plasma", "type": "biochemical, mice", "conditions": "for effect of inhibitor on signal for NASH or healthy samples: Probe #102", "protocol": "For this experiment, all plasma samples were prepared individually and diluted 1/10e in PBS with inhibitor added directly to the samples. Inhibitor was prepared at 15× concentration to final. Substrates were diluted in DI water at 18 uM, such that the final concentration on the plate would be 6 uM. All samples were prepared such that their last dilution on the plate would not affect the desired final concentration. 10 ul of each individual sample was pipetted into their corresponding wells, and the plate was then spun down in the centrifuge at 1500 RPM for 30 seconds to coat the bottom of each well with the sample. 5 ul of the 18 uM substrate solution was pipetted into each well being used on a 384 well plate, and then the plate was spun down in the centrifuge at 1500 rpm for 30 seconds. The plate was placed immediately in the plate reader at 37° C. for a 30-minute-long fluorescence kinetic read at 485/535 extended gain.\nTo assess the proteolytic cleavage pattern of Probe #102, samples were tested using a pool of broad inhibitors for serine, cysteine, threonine, MMP and aspartic protease family members (broad inhibitor) to assess general protease activity, AEBSF for serine proteases, E64 for cysteine proteases, CTSi for broad cathepsin inhibition of cathepsins L,S,K and B, or specific inhibitors for cathepsin K (L00625), for cathepsin L (SID) or cathepsin B (CA074)."}, "[2]": {"conditions": "cited from earlier work"}, "[3]": {"test_system": "carboxylesterase 1, phospholipase A2 and lipoprotein lipase", "experiment": "Spiked recombinant enzymes in human plasma with resorufin oleate as substrate", "type": "biochemical"}, "[4]": {"test_system": "caspase activity in hepatitis", "experiment": "Ex vivo FRET probe cleavage in plasma of Jo2 fulminant hepatitis mice", "type": "biochemical", "conditions": "plasma 3 hours after Jo2 injection", "protocol": "Fulminant hepatitis is induced after injection intraperitoneal of monoclonal antibody anti-CD95 (Jo2, BD biosciences, 4 ug/animal), and mouse plasma samples were collected 3 hours after Jo2 injection."}, "COVID-related proteases [5]": {"test_system": "COVID-related proteases", "experiment": "Ex vivo FRET probe cleavage in COVID vs healthy K2EDTA and Lithium Heparin plasma", "type": "biochemical", "conditions": "K2EDTA and Lithium Heparin plasma sets"}, "[6]": {"test_system": "cathepsin and/or MMP protease activities", "experiment": "Ex vivo FRET probe cleavage in plasma: NASH progression, regression, healthy mice", "type": "biochemical", "conditions": "K2EDTA plasma at 20 weeks", "text": "Plasma samples were collected from all animals at 20 weeks.\nThe probes showing the most differentiation in NASH were linked to cathepsin and/or MMP protease activities."}, "NASH-related proteases": {"test_system": "NASH-related proteases", "experiment": "Ex vivo FRET probe cleavage in K2EDTA plasma of NASH (CDAHFD) vs healthy (CD) mice", "type": "biochemical", "conditions": "n=10 and pooled", "protocol": "All animals were used in accordance with animal care guidelines. Plasma was obtained from these blood samples by centrifugation at 3,500 RPM for 20 min at 4° C. The plasma was stored at −80° C. until it was needed for experimental purposes.\nSamples were mixed with protease substrates and quenchers/reporters in 96-well plates. The 96-well plates were read on a Biotech Synergy H1, using 465,535 excitation/emission settings.\nA single plasma sample was contacted with the probes for each predetermined protease to provide a multiplex assessment of protease activity in the sample."}, "COVID-related proteases [7]": {"test_system": "COVID-related proteases", "experiment": "Ex vivo FRET probe cleavage in COVID positive vs negative swab samples", "type": "biochemical"}, "Granzyme B": {"target": "T1, Granzyme B (Homo sapiens, UniProt P10144)", "T1 construct": "from tissue; host or cells: COVID swab samples", "T1 sequence (P10144 21-247)": "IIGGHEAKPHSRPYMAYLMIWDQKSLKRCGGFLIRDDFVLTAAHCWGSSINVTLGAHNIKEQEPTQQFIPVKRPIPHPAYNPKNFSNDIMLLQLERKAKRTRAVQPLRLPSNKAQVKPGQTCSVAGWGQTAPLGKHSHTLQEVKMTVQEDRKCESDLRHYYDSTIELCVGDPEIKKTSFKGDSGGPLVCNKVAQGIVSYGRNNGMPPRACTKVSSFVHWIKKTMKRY", "experiment": "Inhibition experiments on Probe #647 signal in COVID swab samples", "type": "biochemical", "conditions": "healthy vs COVID samples, FIG. 39"}},
  "note": "Primed or numbered codes have the meaning given here. Where no end group is shown, it is not given here. The star is where a group is joined. 5FAM = O=C1OC2(c3ccc(O)cc3Oc3cc(O)ccc32)c2ccc(C(=O)*)cc21; K(CPQ2) = lysine carrying the CPQ2 quencher; FAM = fluorescent reporter; PEG2′ = not defined here",
  "data": [
    {"compound": "NCCc1ccc(S(=O)(=O)F)cc1", "note": "[AEBSF]", "values": [
      {"measurement": "decrease of RFU signal by inhibitor, NASH", "setting": "[1]; NASH plasma diluted 1/10 in PBS, Probe #102 6 uM", "value": 65, "unit": "%"},
      {"measurement": "decrease of RFU signal by inhibitor, healthy", "setting": "[1]; healthy plasma diluted 1/10 in PBS, Probe #102 6 uM", "value": 60, "unit": "%"}
    ]},
    {"compound": "CCCNC(=O)[C@H]1O[C@@H]1C(=O)N[C@H](C(=O)N1CCC[C@H]1C(=O)O)[C@@H](C)CC", "note": "[CA074]", "values": [
      {"measurement": "effect of inhibitor on signal for NASH or healthy samples", "setting": "[1]", "value": "did not significantly decrease signal"}
    ]},
    {"compound": "O=c1[nH]c(-c2ccccc2O)nc2ccccc12", "note": "[HPQ, 2-(2″-hydroxyphenyl)-4(3H)-quinazolinone]", "values": [
      {"measurement": "solubility in water", "setting": "[2]", "value": "strictly insoluble in water"}
    ]},
    {"compound": "CC(C)C[C@H](NC(=O)[C@H]1O[C@@H]1C(=O)O)C(=O)NCCCCN=C(N)N", "note": "[Probe E64, E64]", "values": [
      {"measurement": "effect of inhibitor on signal for NASH or healthy samples", "setting": "[1]", "value": "decreased NASH signal significantly"}
    ]},
    {"compound": "CN1CCN(c2nc(-c3ccc(C(=O)NC4(C(=O)NCC#N)CCCCC4)cc3)cs2)CC1", "note": "[Probe L006235]", "values": [
      {"measurement": "effect of inhibitor on signal for NASH or healthy samples", "setting": "[1]", "value": "did not significantly decrease signal"}
    ]},
    {"compound": "CCCC(=O)O", "note": "[butyrate]", "values": [
      {"measurement": "suitability as substrate for enzyme detection", "setting": "[3]", "value": "promising for detection of broad range of enzymes"}
    ]},
    {"compound": "Probe #8: Caspase centric probe (GVDVADGK; not fully specified; 5-FAM, CPQ2 quencher, PEG2, D-Lys-D-Lys-GC)", "values": [
      {"measurement": "differentiation between healthy and Jo2 samples", "setting": "[4]", "value": "show contrast that is specific and sensitive to the Jo2 model"}
    ]},
    {"compound": "Probe #12: Caspase centric probe (GDEVDGK; not fully specified; 5-FAM, CPQ2 quencher, PEG2, D-Lys-D-Lys-GC)", "values": [
      {"measurement": "differentiation between healthy and Jo2 samples", "setting": "[4]", "value": "show contrast that is specific and sensitive to the Jo2 model"}
    ]},
    {"compound": "Probe #18: a Neutrophil elastase substrate (GAAPVGK; also: 5-FAM, CPQ2 quencher, PEG2-kk-GC, places not given here)", "values": [
      {"measurement": "differential cleavage between COVID and healthy samples", "setting": "COVID-related proteases [5]", "value": "demonstrated contrast in both sets"}
    ]},
    {"compound": "Probe #84: a Furin substrate (GRVKRGLAGK; also: 5-FAM, CPQ2 quencher, PEG2-kk-GC, places not given here)", "values": [
      {"measurement": "differential cleavage between COVID and healthy samples", "setting": "COVID-related proteases [5]", "value": "demonstrated contrast in both sets"}
    ]},
    {"compound": "Probe #96: FRET peptide probe of Table 1 ({FAM}-GRPLALWESQG-{K(CPQ2)-PEG2′-dK-Gly-Cys})", "values": [
      {"measurement": "differentiation among healthy, regression and NASH samples", "setting": "[6]", "value": "can differentiate"}
    ]},
    {"compound": "Probe #102: a CTSL sensing probe; FRET peptide probe with fluorescent reporter and quencher ({FAM}-GKPILFFRLKG-{K(CPQ2)-PEG2′-dK-dK-Gly-Cys})", "values": [
      {"measurement": "attribution of measured rate of fluorescence increase", "setting": "NASH-related proteases", "value": "can be ascribed to protease activity and to NASH disease"},
      {"measurement": "differentiation among healthy, regression and NASH samples", "setting": "[6]", "value": "can differentiate"},
      {"measurement": "protease to whose activity the probe responds", "setting": "[1]; from inhibitor experiments, FIG. 30", "value": "specifically responds to the activity of cathepsin L (CTSL)"}
    ]},
    {"compound": "Probe #428: FRET peptide probe of Table 1 ({FAM}-GDRRKKLTQG-{K(CPQ2)-PEG2′-dK-dK-Gly-Cys})", "values": [
      {"measurement": "differentiation among healthy, regression and NASH samples", "setting": "[6]", "value": "can differentiate"}
    ]},
    {"compound": "Probe #462: a MMP8 substrate (GKKAKRNALG; also: FAM, K(CPQ2), PEG2, D-Lys-D-Lys-GC, places not given here)", "values": [
      {"measurement": "differential cleavage between COVID and healthy samples", "setting": "COVID-related proteases [5]", "value": "demonstrated contrast in both sets"}
    ]},
    {"compound": "Probe #492: FRET peptide probe of Table 1 ({FAM}-GQRANSIRVTWG-{K(CPQ2)-PEG2′-dK-dK-Gly-Cys})", "values": [
      {"measurement": "attribution of measured rate of fluorescence increase", "setting": "NASH-related proteases", "value": "can be ascribed to protease activity and to NASH disease"},
      {"measurement": "differentiation among healthy, regression and NASH samples", "setting": "[6]", "value": "can differentiate"}
    ]},
    {"compound": "Probe #520: FRET peptide probe of Table 1 (5FAM-GKPISLISSG-{K(CPQ2)-PEG2′-Gly-Cys})", "values": [
      {"measurement": "differentiation among healthy, regression and NASH samples", "setting": "[6]", "value": "can differentiate"}
    ]},
    {"compound": "Probe #647: Caspase centric probe; signal measures the activity of protease Granzyme B (GAIEPDSGG; also: 5FAM, Lys(CPQ2), PEG2, D-Lys-D-Lys, GC-NH2, places not given here)", "values": [
      {"measurement": "differentiation among healthy, regression and NASH samples", "setting": "[6]", "value": "can differentiate"},
      {"measurement": "differentiation between healthy and Jo2 samples", "setting": "[4]", "value": "show contrast that is specific and sensitive to the Jo2 model"},
      {"measurement": "number of active samples, COVID+", "setting": "COVID-related proteases [7]; adjusted RFU across timepoints", "value": 7, "unit": "samples"},
      {"measurement": "number of active samples, COVID-", "setting": "COVID-related proteases [7]; adjusted RFU across timepoints", "value": 1, "unit": "samples"},
      {"measurement": "differentiation between COVID+ and COVID- samples", "setting": "COVID-related proteases [7]; swabs in saline", "value": "key differentiator"},
      {"measurement": "protease whose activity the probe signal measures", "setting": "Granzyme B", "value": "measures the activity of protease Granzyme B"}
    ]},
    {"compound": "resorufin oleate", "values": [
      {"measurement": "suitability as substrate for enzyme detection", "setting": "[3]", "value": "promising for detection of broad range of enzymes"}
    ]}
  ]
}
